Converted amounts (≈) assume the structure as drawn. Square brackets hold non-standard residues; d marks the D form. Peptide text beside a SMILES is read from it. Bip = N[C@@H](Cc1ccc(-c2ccccc2)cc1)C(=O)O; Dip = N[C@H](C(=O)O)C(c1ccccc1)c1ccccc1; 2Nal = N[C@@H](Cc1ccc2ccccc2c1)C(=O)O
Columns and labels:
Staphylococcus aureus [1] = assay: Antibacterial activity against methicillin resistant Staphylococcus aureus ATCC BAA-1556 incubated for 24 hrs by microtiter plate method; type: functional; conditions: Staphylococcus aureus, ATCC BAA-1556, 24 h, read-out: MIC
Escherichia coli = assay: Antibacterial activity against Escherichia coli ATCC 25922 incubated for 24 hrs by microtiter plate method; type: functional; conditions: Escherichia coli, ATCC 25922, 24 h, read-out: MIC
Pseudomonas aeruginosa = assay: Antibacterial activity against Pseudomonas aeruginosa ATCC 27883 incubated for 24 hrs by microtiter plate method; type: functional; conditions: Pseudomonas aeruginosa, ATCC 27883, 24 h, read-out: MIC
[2] = Hemolytic activity in human RBC assessed as hemolysis incubated for 2 hrs by spectrophotometer analysis; type: toxicity, cell-based, Erythrocyte; conditions: human red blood cells (erythrocytes)
Staphylococcus aureus [3] = assay: Antibacterial activity against Staphylococcus aureus ATCC 29213 incubated for 24 hrs by microtiter plate method; type: functional; conditions: Staphylococcus aureus, ATCC 29213, read-out: MIC

Row | Structure (SMILES) | MIC (Staphylococcus aureus [1]) [µg/mL] | MIC (Escherichia coli) [µg/mL] | MIC (Pseudomonas aeruginosa) [µg/mL] | HC50 at 2 h [2] [µg/mL] | MIC (Staphylococcus aureus [3]) [µg/mL]
1 | N=C(N)NCCC[C@H](NC(=O)[C@H](CCCNC(=N)N)NC(=O)[C@H](CCCNC(=N)N)NC(=O)[C@@H](N)CCCNC(=N)N)C(=O)N[C@@H](CCCNC(=N)N)C(=O)N[C@H](C(=O)N[C@H](C(=O)N[C@H](C(=O)O)C(c1ccccc1)c1ccccc1)C(c1ccccc1)c1ccccc1)C(c1ccccc1)c1ccccc1 (H-RRRRR[Dip][Dip][Dip]-OH) | 12.5 (≈ 8.51 µM) | 25 (≈ 17 µM) | 50 (≈ 34 µM) | 165 | 12.5 (≈ 8.51 µM)
2 | N=C(N)NCCC[C@H](NC(=O)[C@H](CCCNC(=N)N)NC(=O)[C@H](CCCNC(=N)N)NC(=O)[C@@H](N)CCCNC(=N)N)C(=O)N[C@@H](Cc1ccc2ccccc2c1)C(=O)N[C@@H](Cc1ccc2ccccc2c1)C(=O)O (H-RRRR[2Nal][2Nal]-OH) | 6.2 (≈ 5.98 µM) | 50 (≈ 48.2 µM) | > 100 | 180 | 6.2 (≈ 5.98 µM)
3 | N=C(N)NCCC[C@H](NC(=O)[C@H](CCCNC(=N)N)NC(=O)[C@@H](N)CCCNC(=N)N)C(=O)N[C@H](C(=O)N[C@H](C(=O)N[C@H](C(=O)O)C(c1ccccc1)c1ccccc1)C(c1ccccc1)c1ccccc1)C(c1ccccc1)c1ccccc1 (H-RRR[Dip][Dip][Dip]-OH) | 6.2 (≈ 5.36 µM) | 6.2 (≈ 5.36 µM) | 25 (≈ 21.6 µM) | 120 | 6.2 (≈ 5.36 µM)
4 | NCCCC[C@@H]1NC(=O)[C@H](CCCCN)NC(=O)[C@H](CCCCN)NC(=O)[C@H](C(c2ccccc2)c2ccccc2)NC(=O)[C@H](C(c2ccccc2)c2ccccc2)NC(=O)[C@H](C(c2ccccc2)c2ccccc2)NC(=O)[C@H](CCCCN)NC1=O (cyclo([Dip][Dip][Dip]KKKK)) | 12.5 (≈ 10.6 µM) | > 100 | > 100 | 165 | 12.5 (≈ 10.6 µM)
5 | NCCCC[C@@H]1NC(=O)[C@H](CCCCN)NC(=O)[C@H](CCCCN)NC(=O)[C@H](C(c2ccccc2)c2ccccc2)NC(=O)[C@H](C(c2ccccc2)c2ccccc2)NC(=O)[C@H](C(c2ccccc2)c2ccccc2)NC(=O)[C@H](CCCCN)NC(=O)[C@H](CCCCN)NC1=O (cyclo([Dip][Dip][Dip]KKKKK)) | 12.5 (≈ 9.54 µM) | 50 (≈ 38.1 µM) | > 100 | 180 | 6.2 (≈ 4.73 µM)
6 | N=C(N)NCCC[C@H](NC(=O)[C@H](CCCNC(=N)N)NC(=O)[C@H](CCCNC(=N)N)NC(=O)[C@@H](N)CCCNC(=N)N)C(=O)N[C@@H](Cc1ccc(-c2ccccc2)cc1)C(=O)N[C@@H](Cc1ccc(-c2ccccc2)cc1)C(=O)N[C@@H](Cc1ccc(-c2ccccc2)cc1)C(=O)O (H-RRRR[Bip][Bip][Bip]-OH) | 12.5 (≈ 9.52 µM) | > 100 | 25 (≈ 19 µM) | – | 6.2 (≈ 4.72 µM)
7 | N=C(N)NCCC[C@@H]1NC(=O)[C@H](CCCNC(=N)N)NC(=O)[C@H](Cc2ccc(-c3ccccc3)cc2)NC(=O)[C@H](Cc2ccc(-c3ccccc3)cc2)NC(=O)[C@H](Cc2ccc(-c3ccccc3)cc2)NC(=O)[C@H](CCCNC(=N)N)NC1=O (cyclo([Bip][Bip][Bip]RRR)) | 50 (≈ 43.9 µM) | > 100 | > 100 | – | 50 (≈ 43.9 µM)
8 | N=C(N)NCCC[C@H](NC(=O)[C@H](CCCNC(=N)N)NC(=O)[C@@H](N)CCCNC(=N)N)C(=O)N[C@@H](CCCNC(=N)N)C(=O)N[C@H](C(=O)N[C@H](C(=O)N[C@H](C(=O)N[C@H](C(=O)O)C(c1ccccc1)c1ccccc1)C(c1ccccc1)c1ccccc1)C(c1ccccc1)c1ccccc1)C(c1ccccc1)c1ccccc1 (H-RRRR[Dip][Dip][Dip][Dip]-OH) | 12.5 (≈ 8.14 µM) | 50 (≈ 32.6 µM) | 50 (≈ 32.6 µM) | 75 | 6.2 (≈ 4.04 µM)
9 | N=C(N)NCCC[C@H](NC(=O)[C@H](CCCNC(=N)N)NC(=O)[C@@H](N)CCCNC(=N)N)C(=O)N[C@@H](Cc1ccc(-c2ccccc2)cc1)C(=O)N[C@@H](Cc1ccc(-c2ccccc2)cc1)C(=O)N[C@@H](Cc1ccc(-c2ccccc2)cc1)C(=O)O (H-RRR[Bip][Bip][Bip]-OH) | 50 (≈ 43.2 µM) | > 100 | > 100 | – | 50 (≈ 43.2 µM)
10 | N=C(N)NCCC[C@H](NC(=O)[C@H](CCCNC(=N)N)NC(=O)[C@H](CCCNC(=N)N)NC(=O)[C@@H](N)CCCNC(=N)N)C(=O)N[C@@H](Cc1ccc(-c2ccccc2)cc1)C(=O)N[C@@H](Cc1ccc(-c2ccccc2)cc1)C(=O)N[C@@H](Cc1ccc(-c2ccccc2)cc1)C(=O)N[C@@H](Cc1ccc(-c2ccccc2)cc1)C(=O)O (H-RRRR[Bip][Bip][Bip][Bip]-OH) | > 100 | > 100 | > 100 | – | > 100
11 | N=C(N)NCCC[C@@H]1NC(=O)[C@H](CCCNC(=N)N)NC(=O)[C@H](CCCNC(=N)N)NC(=O)[C@H](Cc2ccc(-c3ccccc3)cc2)NC(=O)[C@H](Cc2ccc(-c3ccccc3)cc2)NC(=O)[C@H](Cc2ccc(-c3ccccc3)cc2)NC(=O)[C@H](CCCNC(=N)N)NC1=O (cyclo([Bip][Bip][Bip]RRRR)) | 6.2 (≈ 4.79 µM) | > 100 | 25 (≈ 19.3 µM) | – | 3.1 (≈ 2.39 µM)

From ChEMBL document CHEMBL5154681, “Small Amphiphilic Peptides: Activity Against a Broad Range of Drug-Resistant Bacteria and Structural Insight into Membranolytic Properties” (J Med Chem, 2022)
